Legend:
Format in all cases: functional
[1] = test system: SF-268; experiment: Antiproliferative activity against human SF268 cell line
[2] = test system: UACC-62; experiment: Antiproliferative activity against human UACC62 cell line
[3] = test system: OVCAR-3; experiment: Antiproliferative activity against human OVCAR-3 cell line
[4] = test system: SN12C; experiment: Antiproliferative activity against human SN12C cell line
[5] = test system: DU-145; experiment: Antiproliferative activity against human DU145 cell line
[6] = test system: MDA-MB-435; experiment: Antiproliferative activity against human MDA-MB-435 cell line
[7] = test system: HOP-62; experiment: Antiproliferative activity against human HOP62 cell line
[8] = test system: HCT-116; experiment: Antiproliferative activity against human HCT116 cell line

SMILES	GI50 [3] [µM]	GI50 [5] [µM]	GI50 [6] [µM]	GI50 [8] [µM]	GI50 [1] [µM]	GI50 [2] [µM]	GI50 [4] [µM]	GI50 [7] [µM]
O=C1c2ccccc2-c2c1c1ccccc1c(=O)n2CCN1CCOCC1					85.1			
O=C1c2ccccc2-c2c1c1ccccc1c(=O)n2CCCn1ccnc1	1.66	1.41		1.41	2.34	0.79	1.66	2.69
O=C1c2ccccc2-c2c1c1ccc([N+](=O)[O-])cc1c(=O)n2CCN1CCOCC1	> 100	61.7	> 100	> 100		83.2	58.9	52.5
O=C1c2ccccc2-c2c1c1ccccc1c(=O)n2CCNCCO					1.65			
O=C1c2ccccc2-c2c1c1ccc([N+](=O)[O-])cc1c(=O)n2CCCn1ccnc1					0.016			
CN(C)CCCn1c2c(c3ccc([N+](=O)[O-])cc3c1=O)C(=O)c1ccccc1-2	25.7		> 100	6.46		7.08	4.17	
COc1cc2c3c(n(CCCn4ccnc4)c(=O)c2cc1OC)-c1ccccc1C3=O					< 0.01			
CC[C@@]1(O)C(=O)OCc2c1cc1n(c2=O)Cc2cc3ccccc3nc2-1 [CAMPTOTHECIN]					0.01			

Now from value to compound, other results behind:

GI50 [3] [µM]	GI50 [5] [µM]	GI50 [6] [µM]	GI50 [8] [µM]	SMILES	GI50 [1] [µM]	GI50 [2] [µM]	GI50 [4] [µM]	GI50 [7] [µM]
2.63	2.04	3.02	< 0.01	CN(C)CCCn1c2c(c3cc4c(cc3c1=O)OCO4)C(=O)c1ccccc1-2	2.69	0.3	0.023	< 0.01
> 100	> 100	> 100	60.3	COc1cc2c3c(n(CCN4CCOCC4)c(=O)c2cc1OC)-c1ccccc1C3=O	> 100	56.2	> 100	89.1
100	100	100	100	COc1cc2c3c(oc(=O)c2cc1OC)-c1ccccc1C3=O	100	100	100	
> 100	> 100	> 100	> 100	COc1cc2c(=O)oc3c(c2c(OC)c1OC)C(=O)c1ccccc1-3	> 100	> 100	> 100	53.7
> 100	> 100	> 100	47.9	O=C1c2ccccc2-c2oc(=O)c3cc4c(cc3c21)OCO4	> 100	25.1	> 100	18.2
5.89	4.47	7.08	2.45	COc1cc2c3c(n(CCCN(C)C)c(=O)c2cc1OC)-c1ccccc1C3=O	6.17	6.61	11	
> 100	> 100	> 100	> 100	O=C1c2ccccc2-c2oc(=O)c3cc([N+](=O)[O-])ccc3c21	> 100	> 100	> 100	> 100

Source: ChEMBL document CHEMBL1146133, “Synthesis of benz[d]indeno[1,2-b]pyran-5,11-diones: versatile intermediates for the design and synthesis of topoisomerase I inhibitors” (2006)
